SMILES strings stand for the structures.

Broadly, the IC50 is the concentration that inhibits the measured activity by half.

For the assay, the target named is T1, PAR1 (Homo sapiens, UniProt P25116).
T1 sequence (P25116 22-425): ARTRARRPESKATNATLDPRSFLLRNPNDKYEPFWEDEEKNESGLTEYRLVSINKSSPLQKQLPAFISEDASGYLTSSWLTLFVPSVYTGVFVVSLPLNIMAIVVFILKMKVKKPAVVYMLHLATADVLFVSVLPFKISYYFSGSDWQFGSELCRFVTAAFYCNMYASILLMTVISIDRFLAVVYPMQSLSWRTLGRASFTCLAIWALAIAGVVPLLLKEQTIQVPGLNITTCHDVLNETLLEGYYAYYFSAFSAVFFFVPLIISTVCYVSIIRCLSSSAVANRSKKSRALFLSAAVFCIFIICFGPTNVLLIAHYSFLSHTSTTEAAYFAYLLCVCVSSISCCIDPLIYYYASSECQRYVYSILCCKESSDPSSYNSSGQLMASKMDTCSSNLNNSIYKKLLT
As to the kind of experiment: Calcium ion influx experiment (FLIPR), PAR1 inhibition activity, HEK293-Ga15-PAR1 cell strain, agonist haTRAP. The format is cell-based. The note with it: HEK293-Ga15-PAR1 cells; for IC50: calcium influx, agonist haTRAP 3 μM, 4-PL fit; for Slope: slope of 4-PL dosage-effect curve, haTRAP 3 μM. The procedure:
Embodiment 6: Determination of Biological Activity (PAR1 Inhibition Activity) of the Compound
An HEK293-Ga15-PAR1 cell strain (HD Biosciences stable cell strain) was quickly taken out of a liquid nitrogen tank, and shaken continuously in a 37° C. water bath until it was completely melted. A cell suspension was quickly added into a pre-heated culture medium (90% DMEM+10% FBS+1× Pen/Strep), placed in a centrifuge and centrifuged at 1000 rpm for 10 minutes. A centrifugal tube was taken out, the supernatant was discarded, and the fresh pre-heated culture medium was added into the centrifugal tube, cells were resuspended, and the cell suspension was added into a culture dish and cultured at 37° C. with 5% of CO2.
When the cells reached 80-90% of the culture dish, the cells were gently washed with 0.05% of trypsin-EDTA, part of digestive juice was removed, then the cells were incubated for 2-3 min, the digestion was terminated with the new culture medium, the cells were gently blew with a gun head, and the cells were resuspended. In general, the passage was performed according to 1:4 to 1:8 every 2 to 3 days.
On the day before the experiment, 1× Matrigel (Brand: BD, Cat #: 356230) was added into a clean 384-well cell plate, incubated at 37° C. for 30 minutes, and then inverted and centrifuged at 500 rpm for 30 seconds to remove the coating solution.
The cell precipitate was digested and collected, resuspended in the culture medium to 3×10^5 cells/mL, added into the coated cell plate according to 50 μL per well and then incubated at 37° C. with 5% of CO2 overnight.
On the day of the experiment, the fresh experimental buffer solution and 0.5× Calcium 4 (Brand: Molecular Devices, Cat #: R8141) loading buffer solution were prepared.
The 30 mM DMSO stock solution was first diluted with DMSO to 10 mM, and then diluted 4 times from 10 mM for a total of 10 concentrations. Ten DMSO concentration gradients of the compound were added into the experimental buffer solution at a ratio of 1:20 to prepare a working solution of the compound (5 times the final reaction concentration). After that, the working solution of the compound was transferred into a 384-well compound plate according to the layout in the following drawing for later use.
Positive control: 40 mM DMSO stock solution of the reference compound SCH79797 was diluted to 2 mM;
Negative control: 5% of DMSO prepared from the experimental buffer solution
10 mM DMSO stock of the agonist haTRAP was diluted with the experimental buffer solution to 18 μM (6 times the final reaction concentration 3 μM), and then transferred into a 384-well compound plate, at least at 25 μl/well for later use.
The cell plate incubated overnight was taken out, the cell culture medium was removed by centrifugation at 300 rpm for 30 seconds, 20 μL of freshly prepared 0.5× Calcium 4 loading buffer solution was added into every well and then incubation was performed at 37° C. with 5% of CO2 for 1 hour.
The compound working solution was transferred from the compound plate to the cell plate at 5 μL/well according to the layout, then placed at 37° C. again and incubated with 5% of CO2 for 15 minutes.
The agonist was transferred from the 384-well compound plate (FLIPR) to the cell plate at 5 μL/well according to the program set by FLIPR, and the fluorescent signals in each well of the cell plate were simultaneously read.
The inhibition rate (%) of the compound in each well on the cell plate was calculated according to the fluorescence signal values of the positive control and the negative control on each cell plate. […] The inhibition rates and the corresponding concentrations of the compounds obtained by calculation were introduced into the relevant software for graphing, and the IC50 values of the compounds were calculated according to the 4-PL dosage-effect formula. The IC50 result of the reference compound is also one of standards for testing the quality of every experiment.

Regarding `C[C@]1(CO)[C@H]2CCC(CO)[C@@H](CCc3ccc(-c4cccc(C(F)(F)F)c4)cn3)[C@]2(C)CC[C@H]1O` (stereo partly drawn) [Compound I-4], the concentration for half-maximal inhibition (IC50) came to 8.76 µM.

Consider `CO[C@@H]1CC[C@]2(C)[C@H](CCC3(CO3)[C@H]2/C=C/c2ccc(-c3cccc(F)c3)cn2)[C@]1(C)CO` (stereo partly drawn) [Compound I-6], for which the IC50 is 11 µM and the Slope worked out at 1.53.

Turning to `C[C@@]12CC[C@@H](O)[C@@](C)(C(=O)O)[C@H]1CCC1(CO1)[C@H]2/C=C/c1ccc(-c2cccc(F)c2)cn1` (stereo partly drawn) [Compound I-8], the half-maximal inhibitory concentration (IC50) came to 31.6 µM and the Slope amounted to 1.97. For `C[C@@]1(C(=O)O)C(=O)CC[C@@]2(C)[C@H](/C=C/c3ccc(-c4cccc(F)c4)cn3)C3(CC[C@H]12)CO3` (stereo partly drawn) [Compound I-10] the same measures were 19.7 µM and 1.23. For the molecule `COC(=O)[C@]1(C)[C@H](O)CC[C@@]2(C)[C@H](/C=C/c3ccc(-c4cccc(F)c4)cn3)C3(CC[C@@H]21)CO3` (stereo partly drawn) [Compound I-9], the IC50 turned out to be 0.66 µM and the Slope is recorded as 0.97. For `COC[C@@]1(C)[C@H]2CCC3(CO3)[C@@H](/C=C/c3ccc(-c4cccc(F)c4)cn3)[C@]2(C)CC[C@H]1O` (stereo partly drawn) [Compound I-5] the same measures were 7.07 µM and 2.59.

Regarding `C[C@]1(CO)[C@H]2CCC3(CO3)[C@@H](/C=C/c3ccc(-c4cccc(F)c4)cn3)[C@]2(C)CC[C@H]1O` (stereo partly drawn) [Compound I-1], the IC50 was 7.76 µM. Same read-out and setting: with `C[C@]1(CO)[C@H]2CCC(CO)[C@@H](CCc3ccc(-c4cccc(F)c4)cn3)[C@]2(C)CC[C@H]1O` (stereo partly drawn) [Compound I-3] the figure was 8.91 µM. On the same count and under the same terms, with `C[C@]1(CO)[C@H]2CCC3(CO3)[C@@H](/C=C/c3ccc(-c4cccc(C(F)(F)F)c4)cn3)[C@]2(C)CC[C@H]1O` (stereo partly drawn) [Compound I-2] the figure was 7.95 µM. In the case of `C[C@@]1(C=O)[C@H](O)CC[C@@]2(C)[C@H](/C=C/c3ccc(-c4cccc(F)c4)cn3)C3(CC[C@H]12)CO3` (stereo partly drawn) [Compound I-7], the 50% inhibitory concentration (IC50) came out at 3.52 µM and the Slope was determined as 1.02.

For the molecule `CC(C)c1ccc(Cn2ccc3c4c(N)nc(NC5CC5)nc4ccc32)cc1` [SCH79797, reference compound], the half-inhibitory concentration (IC50) is 8.71 µM and the Slope came out at 0.95.

(Values after patent US10385041B2, “Terpene derivative-based PAR1 inhibitor, preparation method thereof, and use in treatment of thrombotic diseases” (SHANDONG UNIVERSITY, priority 2015, dated 2019).)
